Results on seven molecules are retold here after patent publication US20240309015A1, “Methods for the Treatment of Fibrotic Disease” (SHY Therapeutics, LLC, priority 2021, published 2024).

The test system of assay [1] is Smad2/3 phosphorylation. Nature of the assay: Phospho-Smad2/3 Inhibition Assay in PANC-1. In kind it is cell-based. As to conditions: Homo sapiens; 10 μM compound, 3 h; TGF-b1 stimulated PANC-1; western blot; read-out: % inh of Smad2/3 phosphorylation in PANC-1. How it is done: Cell lines: Human tumor-derived pancreatic cancer cell line Panc-1 and mouse muscle myoblast C2C12 were purchased from American Type Culture Collection and grown in complete DMEM-High Glucose, supplemented with penicillin (100 U/mL), streptomycin (100 μg/mL), and 10% heat-inactivated FBS at 37° C. in a humidified incubator with 5% CO2.
Method: Cells were plated at 350000 cells/well density in a 12-well plate, allowed 3 hours to adhere to the plate, then starved in the appropriate medium in the presence of 0.5% FBS overnight. The small molecules to be tested were added to the cells in the final concentration of 10 μM in the presence of 0.3% DMSO for 3 hours incubation at 37° C. For IC50 value determination, serial dilutions of compounds were added to cells under the same conditions. Next, Panc-1 cells were stimulated with 10 ng/ml TGF-b1 for 1 hour, and C2C12 cells were stimulated with 10 ng/ml TGF-b1 for 20 minutes (recombinant human TGF-b1, R&D Systems). After stimulation cells were lysed with lysis buffer containing 1% Triton X-100, EDTA, and Halt™ Protease & Phosphatase Inhibitor Cocktail (Thermo Scientific). Protein concentration was assessed by BCA protein assay (Thermo Scientific). Phosphorylation level of Smad2/Smad3 was determined by western blot.
Western blot protocol: Equal amounts of protein (15-50 μg) were separated by SDS-PAGE and transferred to nitrocellulose membranes (Invitrogen by Thermo Fisher Scientific). The membrane was stained with Ponceau S Stain (Boston BioProducts) to verify uniform protein loading. Membranes were blocked with 10% milk and phosphorylation levels of Smad2/Smad3 were assessed by incubating overnight at 4° C. with the following antibodies: Phospho-Smad2 (Ser465/467) and Phosph-Smad3 (Ser423/425), both from Cell Signaling Technology. Then the membranes were incubated with HRP-conjugated secondary antibody (Jackson Immunoresearch, West Grove, PA). Bands were incubated in Amersham ECL Prime Western Blotting Detection Reagent (GE Healthcare) and visualized using the ChemiDoc MP imaging system (Bio-Rad).

In assay [2] the test system is Rho-A. Nature of the assay: Ras GTP Binding Domain Inhibition Assay, Rho-A. As to conditions: at 20 μM; without SOS. The method in brief:
(§1)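 Assay steps: protein on Ni-coated plate overnight at 4° C, compound for 3 h at room temperature (20 μM single point or serial dilution for IC50), then 100 nM dye-labelled GTP for 45 min. Washed wells read by fluorescence; Sos was added in the last hour in some runs.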

In assay [3] the test system is KRas G12C mutant. Nature of the assay: Ras GTP Binding Domain Inhibition Assay, KRas G12C mutant. Conditions: at 20 μM; for KRas G12C mutant + SOS: % inh.: with SOS; for KRas G12C mutant: % inh.: without SOS. The method in brief:
as §1

Assay [4] deals with TNFα. Nature of the assay: Mouse TNF Alpha Quantification Assay (LPS-stimulated RAW 264.7). Type of assay: cell-based. More on the design: dose or concentration left out as unconfirmed. Conditions: RAW264.7, ELISA, read-out: TNFα: % inh. A general note: In an ELISA, binding on a coated surface is turned into a signal by an enzyme label.
The subject of assay [5] is KRas wild type. Nature of the assay: Ras GTP Binding Domain Inhibition Assay, KRas wild type. As to conditions: at 20 μM; for KRas wild type + SOS: % inh.: with SOS; for KRas wild type: % inh.: without SOS. The method in brief: as §1
Assay [6] deals with IL-6. Nature of the assay: Mouse IL6 Quantification Assay (LPS-stimulated RAW 264.7). Type of assay: cell-based. Details: dose or concentration left out as unconfirmed. As to conditions: RAW264.7, ELISA, read-out: IL-6: % inh.
Assay [7] relates to KRas G12D mutant. Nature of the assay: Ras GTP Binding Domain Inhibition Assay, KRas G12D mutant. As to conditions: at 20 μM; for KRas G12D mutant + SOS: % inh.: with SOS; for KRas G12D mutant: % inh.: without SOS. Put shortly:
as §1

In the case of `Cc1c(-c2ccn(C(C)C)n2)sc2nc(-c3nccn3C)nc(NCCN3CCOCC3)c12` [Compound 22, 6-(1-Isopropyl-1H-pyrazol-3-yl)-5-methyl-2-(1-methyl-1H-imidazol-2-yl)-N-(2-morpholinoethyl)thieno[2,3-d]pyrimidin-4-amine], the inhibition at 10 µM in assay [1] is 0%. The “Rho-A: % inh.” value in assay [2] is on record as “D (D = 76-100% inhibition)”. In assay [3], the “KRas G12C mutant + SOS: % inh.” value is “D (D = 76-100% inhibition)” and the “KRas G12C mutant: % inh.” value was “D (D = 76-100% inhibition)”. In assay [4], the inhibition was in the range of 1 to 25%. In assay [5], the “KRas wild type + SOS: % inh.” value was “D (D = 76-100% inhibition)” and the “KRas wild type: % inh.” value is “D (D = 76-100% inhibition)”. Moreover, the inhibition in assay [6] is 76 to 100%. In addition, in assay [7] (Table 7), the “KRas G12D mutant + SOS: % inh.” value is reported as “D (D = 76-100% inhibition)” and the “KRas G12D mutant: % inh.” value is “D (D = 76-100% inhibition)”. For the same molecule, in assay [7] (Table 8), the “KRas G12D mutant + SOS: % inh.” value is listed as “D (D = 76-100% inhibition)” and the “KRas G12D mutant: % inh.” value is “D (D = 76-100% inhibition)”.
For `COCCCCn1c(-c2nccn2C)nc2sc(-c3ccn(C(C)C)n3)c(C)c2c1=O` [Compound 33, 6-(1-Isopropyl-1H-pyrazol-3-yl)-3-(4-methoxybutyl)-5-methyl-2-(1-methyl-1H-imidazol-2-yl)thieno[2,3-d]pyrimidin-4(3H)-one], the inhibition at 10 µM in assay [1] was 0%. Further, in assay [2], the “Rho-A: % inh.” value is reported as 0 (0 = 0% inhibition). In assay [3], the “KRas G12C mutant + SOS: % inh.” value is recorded as “A (A = 1-25% inhibition)” and the “KRas G12C mutant: % inh.” value was 0 (0 = 0% inhibition). In assay [4], the inhibition worked out at 0%. In assay [5], the “KRas wild type + SOS: % inh.” value is “A (A = 1-25% inhibition)” and the “KRas wild type: % inh.” value is given as 0 (0 = 0% inhibition). The inhibition in assay [6] was in the range of 46 to 75%. In addition, in assay [7] (Table 7), the “KRas G12D mutant + SOS: % inh.” value is 0 (0 = 0% inhibition) and the “KRas G12D mutant: % inh.” value was 0 (0 = 0% inhibition). In assay [7] (Table 8), the “KRas G12D mutant + SOS: % inh.” value is 0 (0 = 0% inhibition) and the “KRas G12D mutant: % inh.” value was 0 (0 = 0% inhibition).
For the molecule `COCCCCOc1nc(-c2nccn2C)nc2sc(-c3ccn(C(C)C)n3)c(C)c12` [Compound 34, 6-(1-Isopropyl-1H-pyrazol-3-yl)-4-(4-methoxybutoxy)-5-methyl-2-(1-methyl-1H-imidazol-2-yl)thieno[2,3-d]pyrimidine], in assay [1], the inhibition at 10 µM was determined as 0%. Moreover, the “Rho-A: % inh.” value in assay [2] is 0 (0 = 0% inhibition). Also, in assay [3], the “KRas G12C mutant + SOS: % inh.” value is given as “A (A = 1-25% inhibition)” and the “KRas G12C mutant: % inh.” value is reported as 0 (0 = 0% inhibition). In addition, in assay [4], the inhibition is 0%. Besides, in assay [5], the “KRas wild type + SOS: % inh.” value is 0 (0 = 0% inhibition) and the “KRas wild type: % inh.” value is listed as “A (A = 1-25% inhibition)”. For the same molecule, in assay [6], the inhibition was in the range of 76 to 100%. In assay [7] (Table 7), the “KRas G12D mutant + SOS: % inh.” value is 0 (0 = 0% inhibition) and the “KRas G12D mutant: % inh.” value is recorded as “A (A = 1-25% inhibition)”. In assay [7] (Table 8), the “KRas G12D mutant + SOS: % inh.” value is given as 0 (0 = 0% inhibition) and the “KRas G12D mutant: % inh.” value was “A (A = 1-25% inhibition)”.
With `COCCCn1c(-c2nccn2C)nc2sc(-c3ccn(C(C)C)n3)c(-c3ccccc3)c2c1=O` [Compound 36, 6-(1-Isopropyl-1H-pyrazol-3-yl)-3-(3-methoxypropyl)-2-(1-methyl-1H-imidazol-2-yl)-5-phenylthieno[2,3-d]pyrimidin-4(3H)-one], in assay [1], the inhibition at 10 µM is 0%. The “Rho-A: % inh.” value in assay [2] was 0 (0 = 0% inhibition). Moreover, in assay [3], the “KRas G12C mutant + SOS: % inh.” value is “A (A = 1-25% inhibition)” and the “KRas G12C mutant: % inh.” value is listed as 0 (0 = 0% inhibition). Further, the inhibition in assay [4] was found to be 0%. Moreover, in assay [5], the “KRas wild type + SOS: % inh.” value was “A (A = 1-25% inhibition)” and the “KRas wild type: % inh.” value is recorded as “A (A = 1-25% inhibition)”. The inhibition in assay [6] is 46 to 75%. Further, in assay [7] (Table 7), the “KRas G12D mutant + SOS: % inh.” value is recorded as 0 (0 = 0% inhibition) and the “KRas G12D mutant: % inh.” value is on record as 0 (0 = 0% inhibition). Also, in assay [7] (Table 8), the “KRas G12D mutant + SOS: % inh.” value was 0 (0 = 0% inhibition) and the “KRas G12D mutant: % inh.” value is recorded as 0 (0 = 0% inhibition).
Consider `Cc1c(-c2ccn(C(C)C)n2)sc2nc(-c3nccn3C)nc(NCC3COCCN3C)c12` (racemic) [Compound 24, rac-6-(1-Isopropyl-1H-pyrazol-3-yl)-5-methyl-2-(1-methyl-1H-imidazol-2-yl)-N-((4-methylmorpholin-3-yl)methyl)thieno[2,3-d]pyrimidin-4-amine], for which the inhibition at 10 µM in assay [1] amounted to 0%. In addition, the “Rho-A: % inh.” value in assay [2] is on record as “C (C = 46-75% inhibition)”. For the same molecule, in assay [3], the “KRas G12C mutant + SOS: % inh.” value is reported as “D (D = 76-100% inhibition)” and the “KRas G12C mutant: % inh.” value is on record as “C (C = 46-75% inhibition)”. Moreover, the inhibition in assay [4] lay in the range of 1 to 25%. Further, in assay [5], the “KRas wild type + SOS: % inh.” value was “D (D = 76-100% inhibition)” and the “KRas wild type: % inh.” value is “B (B = 26-45% inhibition)”. Besides, the inhibition in assay [6] was 76 to 100%. Also, in assay [7] (Table 7), the “KRas G12D mutant + SOS: % inh.” value is given as “D (D = 76-100% inhibition)” and the “KRas G12D mutant: % inh.” value is reported as “C (C = 46-75% inhibition)”. For the same molecule, in assay [7] (Table 8), the “KRas G12D mutant + SOS: % inh.” value was “D (D = 76-100% inhibition)” and the “KRas G12D mutant: % inh.” value is “C (C = 46-75% inhibition)”.
For the molecule `COc1cc(Cn2c(-c3nccn3C)nc3sc(-c4ccn(C(C)C)n4)c(C)c3c2=O)ncn1` [Compound 35, 6-(1-Isopropyl-1H-pyrazol-3-yl)-3-((6-methoxypyrimidin-4-yl)methyl)-5-methyl-2-(1-methyl-1H-imidazol-2-yl)thieno[2,3-d]pyrimidin-4(3H)-one], the inhibition at 10 µM in assay [1] was determined as 0%. In addition, the “Rho-A: % inh.” value in assay [2] was 0 (0 = 0% inhibition). Moreover, in assay [3], the “KRas G12C mutant + SOS: % inh.” value is recorded as “A (A = 1-25% inhibition)” and the “KRas G12C mutant: % inh.” value is listed as 0 (0 = 0% inhibition). Besides, the inhibition in assay [4] was 1 to 25%. In assay [5], the “KRas wild type + SOS: % inh.” value is “A (A = 1-25% inhibition)” and the “KRas wild type: % inh.” value is reported as “A (A = 1-25% inhibition)”. Also, the inhibition in assay [6] lay within 1 to 25%. In assay [7] (Table 7), the “KRas G12D mutant + SOS: % inh.” value is 0 (0 = 0% inhibition) and the “KRas G12D mutant: % inh.” value is “A (A = 1-25% inhibition)”. In addition, in assay [7] (Table 8), the “KRas G12D mutant + SOS: % inh.” value is listed as 0 (0 = 0% inhibition) and the “KRas G12D mutant: % inh.” value is “A (A = 1-25% inhibition)”.
On to `COCCOc1nc(-c2nccn2C)nc2sc(-c3ccn(C(C)C)n3)c(C)c12` [Compound 30, 6-(1-Isopropyl-1H-pyrazol-3-yl)-4-(2-methoxyethoxy)-5-methyl-2-(1-methyl-1H-imidazol-2-yl)thieno[2,3-d]pyrimidine], for which the inhibition at 10 µM in assay [1] amounted to 0%. Also, the “Rho-A: % inh.” value in assay [2] is given as 0 (0 = 0% inhibition). In addition, in assay [3], the “KRas G12C mutant + SOS: % inh.” value is 0 (0 = 0% inhibition) and the “KRas G12C mutant: % inh.” value is on record as “A (A = 1-25% inhibition)”. Also, the inhibition in assay [4] was 0%. Moreover, in assay [5], the “KRas wild type + SOS: % inh.” value was 0 (0 = 0% inhibition) and the “KRas wild type: % inh.” value was “A (A = 1-25% inhibition)”. Besides, the inhibition in assay [6] was found to be 0%. In addition, in assay [7] (Table 7), the “KRas G12D mutant + SOS: % inh.” value is listed as 0 (0 = 0% inhibition) and the “KRas G12D mutant: % inh.” value is listed as 0 (0 = 0% inhibition). In addition, in assay [7] (Table 8), the “KRas G12D mutant + SOS: % inh.” value is 0 (0 = 0% inhibition) and the “KRas G12D mutant: % inh.” value is 0 (0 = 0% inhibition).
